Experimental data as given in PMC12040169 (PLOS Biology, 2025).

Experiment: in vitro
Conditions: human, hela cells, % viability

Structure (SMILES)	viability at 28.5 h, 10 µM [%]
COc1cc([N+](=O)[O-])ccc1NC(=S)NNS(=O)(=O)c1cc(Cl)c(Cl)cc1Cl [CBK266863]	96.2
O=C(Nc1ccc(C(F)(F)F)cc1)N(Cc1ccc2ccccc2c1)CC1CCNCC1 [CBK056720]	88.9
CC(C)(C)c1cc(C(=O)O)[nH]n1 [CBK260874]	103
Cc1ccc(COc2cc(C(=O)NCc3ccccn3)c3ccccc3n2)cc1 [CBK294403]	112
CN1C[C@H](C(N)=O)[C@@H](c2ccc(CN(C)C(=O)c3cccc(Oc4ccccc4)c3)cc2)C1 [CBK285572]	114
FC(F)(F)c1nc2ccccc2nc1Sc1ccncc1 [CBK093773]	92.8
Cc1cc(=[N+]2CCCCC2)cc(C)o1 [CBK022824I]	96.7
N=C(N)SCCCCCSC(=N)N [CBK278314B]	88.2
Cc1cn(CC(=O)N2CCCC3(CCN(C(=O)c4cc(F)c(F)cc4F)C3)C2)c(=O)[nH]c1=O (stereo not drawn) [CBK131561]	101
NS(=O)(=O)c1ccc(CNC(=O)c2cncc(-c3ccc(C(=O)N4CCOCC4)cc3)c2)cc1 [CBK158641]	100
COc1ccc([C@@]23CC[C@@H](NC(=O)Cc4ccc(Cl)cc4)CC2N(C)CC3)cc1OC (stereo partly drawn) [CBK074971T]	96
NC(=O)c1c(NC(=O)c2ccc(COc3cc(Cl)ccc3Cl)o2)sc2c1CCCC2 [CBK265775]	85.4
CC(C)Nc1cncc(OC2CCN(C)C2)n1 (stereo not drawn) [CBK115598]	90.8
O=[N+]([O-])c1ccccc1/C=C/CN1CCN(CCO)CC1 [CBK261863]	85.8
O=C(Nc1ccc(Oc2cccnc2)cc1)C1CCCN1 (stereo not drawn) [CBK282498]	110
COCCc1nc(CN(C)C)n(Cc2ccccc2C)n1 [CBK307014]	87.8
c1ccc(OCCOc2cccnc2N2CCNCC2)cc1 [CBK200000C]	90.1
CN1CCN(CCCNC(=O)c2ccc(-c3ccoc3)nc2)CC1 [CBK156257]	93.3
CCCNC(=O)C(C)NC(=O)C1=Cc2ccccc2OC1 (stereo not drawn) [CBK297937]	95.2
CC(C)(c1ccccc1)c1ccc(OCc2ccc(S(=O)(=O)N3CCOCC3)cc2)cc1 [CBK267407]	96.8
COC(=O)CCCN1CCCC12CCc1[nH]c3ccccc3c1C2 (stereo not drawn) [CBK107798T]	95.6
NS(=O)(=O)c1ccc(NC(=S)N2CCN(CCc3ccccc3)CC2)cc1 [CBK268133]	97.6
CCOc1cccc(-c2cncc(N3CCN(c4ccccn4)CC3)n2)c1 [CBK065985]	91.5

Structure (SMILES)	viability at 28.5 h, 10 µM [%]
Cc1nc(Nc2ccc(Cl)cc2)nc(OC2CCNCC2)n1 [CBK024848]	90.5
CC(=O)Nc1ccc(-c2ccc(C(=O)N3CCC(Sc4ccccc4)CC3)cn2)cc1 [CBK160188]	99.6
Cc1ccc(C(=O)NCCC(=O)Nc2ccccn2)cc1NC(=O)c1ccco1 [CBK298328]	92.2
O=C(N[C@H]1CC[C@H](O)CC1)C1(Cc2cc(-c3ccc(F)cc3F)no2)CCOCC1 [CBK286352]	94.9
O=C(O)Cn1cc(C(C(=O)O)N2CCN(c3ccccc3)CC2)c2ccccc21 (stereo not drawn) [CBK286625]	78.1
CC(C)(C)OC(=O)N1Cc2ccccc2C[C@H]1C(=O)N1CCC(C(=O)O)CC1 [CBK286761]	94.1
Cc1ccc(Nc2nc(N)nc(CN3CCN(Cc4ccc5c(c4)OCO5)CC3)n2)cc1 [CBK268985]	96.1
CCC1(CC)OC(NC[C@@H](C)c2ccccc2)=NC1=O [CBK123983]	116
O=C(CSc1nc2ccccc2[nH]1)c1ccc2ccccc2c1 [CBK261739]	104
CC(C)(C)c1csc(NC(=O)C2CC(=O)N(Cc3cccs3)C2)n1 (stereo not drawn) [CBK175547]	109
COc1cc(C2C3=C(CC(C)(C)CC3=O)Nc3ncnn32)cc(OC)c1OC (stereo not drawn) [CBK265646]	86.2
CCN(CC)c1ccc(NC(=O)c2cccc(OC)c2OC)c(C)c1 [CBK097801]	92.2
Cc1cc(C[C@@H]2COC[C@H]2NCc2ccc(C)c(C)c2)on1 [CBK284883]	106
CN(CCCC(=O)O)c1nc(-c2ccc(Br)cc2)cs1 [CBK299834]	88.6
Cc1c(C(=O)N2CCCCC2C(N)=O)nnn1-c1cccc(Cl)c1 (stereo not drawn) [CBK305490]	106
CC(C)NS(=O)(=O)c1ccc(NC(=O)COc2ccc3ccccc3c2Br)cc1 [CBK267920]	94.3
COc1cc(OC)cc(C(=O)N2CCC3(CC2)CC(=O)c2c(OC)cc(OC)cc2O3)c1 [CBK164233]	105
CCCCc1ccc(-c2nc(NC(=O)NCC)cc3cccnc23)cc1 [CBK081231]	94.6
Fc1ccccc1CN1CCN(c2nccnc2OCCN2CCOCC2)CC1 [CBK082886T]	102
COc1ccc(S(=O)(=O)NCCCN2CCOCC2)c(Cl)c1Cl [CBK269792]	95.3
CCCC/C=C/c1cccc(Nc2cccnc2)n1 [CBK037645]	103
Cc1cccc(N(CC(=O)Nc2ccc3c(c2)oc2ccccc23)S(=O)(=O)c2ccccc2)c1 [CBK264813]	101
O=C(Nc1ccccc1)O[C@@H]1CO[C@H]2[C@@H]1OC[C@@H]2Nc1nccc(-c2cccs2)n1 [CBK289513]	97.8

Structure (SMILES)	viability at 28.5 h, 10 µM [%]
O=C(CN1C(=O)[C@@H]2CCCN2c2ncccc21)NC(c1ccccc1)c1ccccc1 [CBK286205]	121
Cc1nc(C)n(CC2CCCN(Cc3cn4c(C)cccc4n3)C2)n1 (stereo not drawn) [CBK304007]	97.7
CCc1cc(=O)[nH]c(-c2ccc(N3CCOCC3C)nc2)n1 (stereo not drawn) [CBK305532]	95.7
CC(C)[C@H](NS(=O)(=O)c1ccc(Cl)cc1)C(=O)NCc1ccc(Cn2cccn2)cc1 [CBK295611]	104
CCC(c1cccnc1)N(C)C(=O)c1ccc(=O)n(C)c1 (stereo not drawn) [CBK306802]	101
CC(=O)Cc1nc2ccccc2nc1O [CBK089805]	92.2
CC1CCC(C(C)C)C(OC(=O)C(C)O)C1 (stereo not drawn) [CBK067073]	81.6
CC(Oc1ccccc1)C(=O)Nc1nn(Cc2ccc(S(=O)(=O)N3CCCC3)cc2)c2ccccc12 (stereo not drawn) [CBK061595]	102
Cc1ccc(F)c(OC2(C(=O)O)CCN(Cc3ncc[nH]3)CC2)c1 [CBK307062]	85.2
O=S(=O)(c1ccccc1)N1CCC(c2cc3ncccc3[nH]2)CC1 [CBK283397]	104
COc1ccccc1C1(NCc2cnn(C)c2)CCCC1 [CBK282744]	97
CCn1c(CC2CCN(C(=O)CCCn3cnnn3)CC2)nn(C)c1=O [CBK306537]	102
CN(CC(N)=O)C(=O)CCn1c(=O)oc2cc(Cl)ccc21 [CBK305757]	94.9
Cc1ccc(OCC(=O)NCC2CCN(c3cnn(C)c(=O)c3)C2)cc1 (stereo not drawn) [CBK306693]	83.6
Cc1ccnn1CCNC(=O)CCc1ccc(Cl)cc1 [CBK283182]	91.1
Cc1c(F)cccc1CN(CCCN)C(=O)Nc1ccccc1C(C)(C)C [CBK034699C]	89.3
O=P(O)(O)Cc1ccccc1-c1ccccc1 [CBK012659]	111
Cc1[nH]nc(C(F)(F)F)c1Cl [CBK025387]	113
COCC(=O)N1CCN(C(=O)N2CCOCC2)C[C@@H]1C(=O)OC [CBK289613]	109
O=C(Nc1ccncc1)c1snnc1-c1ccccc1 [CBK287982]	81.4
COc1cc2c(cc1OC)C(CCN)=NCC2 [CBK023947C]	86.6
OCc1ccccc1-c1cn2ccnc2c(Nc2ccccc2)n1 [CBK037999]	108
O=C(c1ccc2nc[nH]c2c1)N1Cc2ccccc2C1 [CBK200322]	103

Structure (SMILES)	viability at 28.5 h, 10 µM [%]
CCC(Cc1c[nH]c2ccccc12)NC(=N)N (stereo not drawn) [CBK010430]	102
O=C(O)CC(Cc1ccc(Cl)cc1)C(=O)NCc1ccccc1 (stereo not drawn) [CBK286984]	89.4
CC(C)(C)OC(=O)N1CCN(CCn2cc(C(=O)O)nn2)CC1 [CBK287112]	86.8
O=C(Nc1ccccc1[N+](=O)[O-])C(c1ccccc1)N1CCOCC1 (stereo not drawn) [CBK269390]	94
COC(=O)c1ccc(S(N)(=O)=O)o1 [CBK113186]	105
Nc1ncc(-c2ccsc2)nc1NCC1CCOCC1 [CBK063848]	102
CC(C)[C@H](CO)n1c(=O)[nH]c2ncc(-c3ccco3)nc21 [CBK064479]	86.7
O=C(NCCNc1ccc([N+](=O)[O-])cc1Cl)c1ccc(F)cc1 [CBK262344]	86.6
Cc1nc(S(=O)(=O)CC2CCCO2)n(CC(C)C)c1C (stereo not drawn) [CBK304882]	116
O=C1N[C@]2(Cc3ccccc31)CN(Cc1ccccc1)C[C@H]2CO [CBK284743]	92.1
O=C(O)CCC(NC(=O)c1ccc(-c2ccc(Cl)cc2)s1)C(=O)O (stereo not drawn) [CBK295171]	92.9
CCOCCn1c(N2CCCC(C)C2)nc2c1c(=O)[nH]c(=O)n2C (stereo not drawn) [CBK304304]	85.1
CCCNC(=O)N1CCCC(Cc2ccc(F)cc2F)(C(=O)OCC)C1 (stereo not drawn) [CBK307031]	94.2
C=CCn1c(C)c(CN2CCc3c(nc(C)[nH]c3=O)C2)c2ccccc21 [CBK283990]	88.6
CN1CCC(NC(=O)c2cccc(OCC(=O)N3CCCCC3)c2)C1=O (stereo not drawn) [CBK307281]	78.3
CC(Sc1ccc(Cl)cc1)C(=O)Nc1ccc(S(=O)(=O)Nc2ccc(Cl)cc2)cc1 (stereo not drawn) [CBK264805]	97.9
Fc1ccc(COc2ccc3ccccc3c2CNc2nn[nH]n2)cc1 [CBK268211]	86.9
CNCc1ccccc1Sc1cccc(OC)c1 [CBK026207C]	103
CC(CCCc1ccccc1)NC(=O)c1cc2c([nH]c1=O)CCC2 (stereo not drawn) [CBK281528]	87.6
O=C1CN(C(=O)c2cccc(Cl)c2)c2ccccc2N1 [CBK017844]	101

Same assay, conditions: human, hela cells, % viability, bulk resorufin, single well

Structure (SMILES)	viability at 28.5 h, 10 µM [%]
O=[N+]([O-])c1ccc(-n2cnc3ccccc32)c([N+](=O)[O-])c1 [CBK261120]	91.9
